IC50 data for eight compounds are collected here from patent publication US7829557B2, “2-heterosubstituted 3-aryl-4H-1-benzopyran-4-ones as novel therapeutics in breast cancer” (The Ohio State University Research Foundation, priority 2006, dated 2010).

Where two headings read alike, the source gives them in different places.

One experiment deals with MCF-7 cells. The experiment in a line: Dose response / IC50 for effects on proliferation in MCF-7 cells. The class given is cell-based, human. Here is the method: Several members of the combinatorial library that was prepared in accordance with the methods of this invention have been tested for effects on proliferation in MCF-7 cells and MDA-MB-231 cells.
Dose response studies were performed with compounds from the combinatorial library. Compounds 234, 220, 244, 230, 258, YWK-II-14 and 4-OH-Tamoxifen were performed.
IC50 ranges for several members of the combinatorial library were within 95% confidence intervals.

Experiment [1] concerns human breast cancer cell lines. Kind of experiment: Suppression of proliferation of human breast cancer cell lines. Format: cell-based. The conditions noted are these: suppressing proliferation of human breast cancer cell lines; most potent of the series. From the text:
Thus, we designed and synthesized several isoflavones containing a basic side chain connected through either an oxygen or a sulfur linkage (synthetic scheme—FIG. 9).

The mark [2] stands for this setting: 95% confidence interval, no unit in this head, cell line taken from Example 5 (MCF-7), read-out: IC50 Range.
Where [3] appears, read: from GraphPad Prism fit, read-out: IC50 (From Program).
Where [4] appears, read: midpoint and half-width of the IC50 range, read-out: IC50 ± ΔIC50.

The IC50 is the concentration that inhibits the measured activity by half. Regarding `O=c1c(-c2ccc(O)cc2)c(Sc2ccc(O)cc2)oc2cc(O)ccc12` [Compound 244], the 50% inhibitory concentration (IC50) in the experiment with MCF-7 cells (setting [2]) was 7.86 to 15.7 µM; with MCF-7 cells (setting [3]) it was 11.1 µM; in the experiment on MCF-7 cells (setting [4]), 11.8 ± 3.94 µM.

For the compound `COc1ccc(-c2c(Sc3ccc(O)cc3)oc3cc(OCc4ccccc4)ccc3c2=O)cc1` [Compound 220], the IC50 with MCF-7 cells (setting [2]) was 2.87 to 7.68 µM; in the experiment on MCF-7 cells (setting [3]) it was 4.7 µM; with MCF-7 cells (setting [4]), 5.28 ± 2.4 µM.

Regarding `CC/C(=C(\c1ccc(O)cc1)c1ccc(OCCN(C)C)cc1)c1ccccc1` [4-OH Tamoxifen, reference compound], the IC50 in the experiment on MCF-7 cells (setting [2]) was 3.61 to 4.93 µM; with MCF-7 cells (setting [3]), 4.22 µM; in the experiment on MCF-7 cells (setting [4]), 4.27 ± 0.66 µM.

Take `COc1ccc(-c2c(Oc3ccc(OCCN4CCCCC4)cc3)oc3cc(OCc4ccccc4)ccc3c2=O)cc1` [Compound 258]: the IC50 in the experiment on MCF-7 cells (setting [2]) is 2.3 to 5.88 µM; with MCF-7 cells (setting [3]) it was 3.67 µM; with MCF-7 cells (setting [4]), 4.09 ± 1.79 µM.

Turning to `COc1ccc(-c2c(Oc3ccc(OCCN4CCCCC4)cc3)oc3cc(O)ccc3c2=O)cc1` [YWK-II-14], the IC50 in the experiment with MCF-7 cells (setting [2]), in the experiment with MCF-7 cells (setting [3]) and in the experiment with MCF-7 cells (setting [4]) was roughly 6.31 µM throughout.

`COc1ccc(-c2c(Sc3ccc(OCCN4CCCCC4)cc3)oc3cc(O)ccc3c2=O)cc1` [Compound 234]: the IC50 in the experiment on MCF-7 cells (setting [2]) was 0.36 to 0.92 µM; with MCF-7 cells (setting [3]) it was 0.58 µM; in the experiment on MCF-7 cells (setting [4]) it was 0.64 ± 0.28 µM.

For the compound `COc1ccc(-c2c(Sc3ccc(OCCN4CCCCC4)cc3)oc3cc(O)ccc3c2=O)cc1` [Compound 310a], half-maximal inhibition in experiment [1] (IC50) was put at 0.058 µM.

Take `COc1ccc(-c2c(Sc3ccc(OCCN4CCCCC4)cc3)oc3cc(OCc4ccccc4)ccc3c2=O)cc1` [Compound 230]: the IC50 in the experiment with MCF-7 cells (setting [2]) is 2.41 to 7.23 µM; with MCF-7 cells (setting [3]), 4.17 µM; in the experiment with MCF-7 cells (setting [4]), 4.82 ± 2.41 µM.
